Columns and labels:
Assay type in all cases: functional
[1] = system: Nephotettix cincticeps; test: Insecticidal activity against green rice Nephotettix cincticeps (green rice leafhopper) third-instar larvae assessed as mortality at 12.5 ppm applied through spray measured after 4 days; details: 96 h
[2] = system: Nephotettix cincticeps; test: Insecticidal activity against green rice Nephotettix cincticeps (green rice leafhopper) third-instar larvae assessed as mortality at 3.1 ppm applied through spray measured after 4 days; details: for mortality at 3.1 ppm: Nephotettix cincticeps, 96 h
[3] = system: Nephotettix cincticeps; test: Insecticidal activity against green rice Nephotettix cincticeps (green rice leafhopper) third-instar larvae assessed as mortality at 50 ppm applied through spray measured after 4 days; details: 96 h
[4] = system: Tetranychus urticae; test: Insecticidal activity against Tetranychus urticae (two-spotted spider mite) assessed as mortality at 12.5 ppm
[5] = system: Nilaparvata lugens; test: Insecticidal activity against Nilaparvata lugens (brown planthopper) third-instar larvae assessed as mortality at 12.5 ppm applied through spray measured after 5 days; details: 120 h
[6] = system: Myzus persicae; test: Insecticidal activity against Myzus persicae (green peach aphid) assessed as mortality at 3.1 ppm measured after 4 days; details: 96 h
[7] = system: Nilaparvata lugens; test: Insecticidal activity against Nilaparvata lugens (brown planthopper) third-instar larvae assessed as mortality at 3.1 ppm applied through spray measured after 5 days; details: 120 h
[8] = system: Tetranychus urticae; test: Insecticidal activity against Tetranychus urticae (two-spotted spider mite) assessed as mortality at 3.1 ppm
[9] = system: Myzus persicae; test: Insecticidal activity against Myzus persicae (green peach aphid) assessed as mortality at 12.5 ppm measured after 4 days; details: 96 h
[10] = system: Myzus persicae; test: Insecticidal activity against Myzus persicae (green peach aphid) assessed as mortality at 0.8 ppm measured after 4 days; details: 96 h
[11] = system: Plutella xylostella; test: Insecticidal activity against Plutella xylostella (diamondback moth) third-instar larvae in compound treated cabbage leaf assessed as mortality at 3.1 ppm measured after 4 days; details: 96 h
[12] = system: Plutella xylostella; test: Insecticidal activity against Plutella xylostella (diamondback moth) third-instar larvae in compound treated cabbage leaf assessed as mortality at 0.8 ppm measured after 4 days; details: 96 h
[13] = system: Plutella xylostella; test: Insecticidal activity against Plutella xylostella (diamondback moth) third-instar larvae in compound treated cabbage leaf assessed as mortality at 12.5 ppm measured after 4 days; details: 96 h
[14] = system: Nephotettix cincticeps; test: Insecticidal activity against green rice Nephotettix cincticeps (green rice leafhopper) third-instar larvae assessed as mortality at 0.8 ppm applied through spray measured after 4 days; details: for mortality at 0.8 ppm: Nephotettix cincticeps, 96 h
[15] = system: Nilaparvata lugens; test: Insecticidal activity against Nilaparvata lugens (brown planthopper) third-instar larvae assessed as mortality at 0.8 ppm applied through spray measured after 5 days; details: 120 h

Compound | mortality at 12.5 ppm [1] [%] | mortality at 3.1 ppm [2] [%] | mortality at 50 ppm [3] [%] | further results
CCc1ccc(Oc2ccc(CNC(=O)c3c(Cl)c(CC)nn3C)cc2)cc1 | 80 | 30 | 100 | 
CCc1nn(C)c(C(=O)NCc2ccc(Oc3ccc(Cl)cc3)cc2)c1Cl | 80 | 80 | 100 | 
CCc1nn(C)c(C(=O)NCc2ccc(Oc3ccc([S+](C)[O-])cc3)cc2)c1Cl (centres undefined) | 100 | 30 | 100 | 
CCc1nn(C)c(C(=O)NCc2ccc(Oc3ccc(CC(C)C)cc3)cc2)c1Cl |  |  | 0 | 
CC1CCc2c1nn(C)c2C(=O)NCc1ccc(Oc2ccc(C(F)(F)F)cc2)cc1 (single isomer, unassigned; (+)) |  |  |  | mortality [2]: 30%
CCc1nn(C)c(C(=O)NCc2ccc(Oc3ccc(OC(C)C)cc3)cc2)c1Cl | 30 | 0 | 80 | 
CCc1nn(C)c(C(=O)NCc2ccc(Oc3ccc(SC(C)C)cc3)cc2)c1Cl | 30 | 30 | 100 | 
CC1CCc2c1nn(C)c2C(=O)NC(C)(C)c1ccc(Oc2ccc(C(F)(F)F)cc2)cc1 (centres undefined) |  |  | 0 | 
CCc1nn(C)c(C(=O)NCc2ccc(Oc3ccc(SC)cc3)cc2)c1Cl | 100 | 80 | 100 | 
CCSc1ccc(Oc2ccc(CNC(=O)c3c(Cl)c(CC)nn3C)cc2)cc1 | 80 | 30 | 100 | 
CSc1ccc(Oc2ccc(CNC(=O)c3c4c(nn3C)C(C)CC4)cc2)cc1 (centres undefined) | 100 | 80 |  | mortality at 12.5 ppm [4]: 100%; mortality at 12.5 ppm [5]: 80%; mortality at 3.1 ppm [6]: 100%; mortality at 3.1 ppm [7]: 30%; mortality at 3.1 ppm [8]: 80%; mortality at 12.5 ppm [9]: 100%; mortality at 0.8 ppm [10]: 0%; mortality at 3.1 ppm [11]: 80%; mortality at 0.8 ppm [12]: 0%; mortality at 12.5 ppm [13]: 100%; mortality at 0.8 ppm [14]: 30%; mortality at 0.8 ppm [15]: 30%
CC1CCCc2c1nn(C)c2C(=O)NCc1ccc(Oc2ccc(C(F)(F)F)cc2)cc1 (centres undefined) | 100 | 0 | 100 | mortality at 0.8 ppm [14]: 0%
CCc1nn(C)c(C(=O)NCc2ccc(Oc3ccc(OC(F)F)cc3)cc2)c1Cl | 100 | 80 | 100 | 
CCc1nn(C)c(C(=O)NCc2ccc(Oc3ccc(OC)cc3)cc2)c1Cl | 100 | 30 | 100 | 
CCC1CCc2c1nn(C)c2C(=O)NCc1ccc(Oc2ccc(C(F)(F)F)cc2)cc1 (centres undefined) | 100 | 30 | 100 | mortality at 0.8 ppm [14]: 0%
CCc1cc(C(=O)NCc2ccc(Oc3ccc(C(F)(F)F)cc3)cc2)n(C)n1 | 100 | 30 | 100 | 
CC1CCc2c1nn(C)c2C(=O)NCc1ccc(Oc2ccc(C#N)cc2)cc1 (centres undefined) | 30 | 0 |  | mortality at 12.5 ppm [4]: 100%; mortality at 12.5 ppm [5]: 100%; mortality at 3.1 ppm [6]: 80%; mortality at 3.1 ppm [7]: 80%; mortality at 3.1 ppm [8]: 100%; mortality at 12.5 ppm [9]: 100%; mortality at 0.8 ppm [10]: 0%; mortality at 3.1 ppm [11]: 100%; mortality at 0.8 ppm [12]: 30%; mortality at 12.5 ppm [13]: 100%; mortality at 0.8 ppm [15]: 80%
Cn1nc2c(c1C(=O)NCc1ccc(Oc3ccc(C(F)(F)F)cc3)cc1)CCC2 | 100 | 100 | 100 | mortality at 0.8 ppm [14]: 0%
CCc1nn(C)c(C(=O)NCc2ccc(Oc3ccc(C(F)(F)F)cc3)cc2)c1F | 100 | 30 | 100 | mortality at 0.8 ppm [14]: 0%
Cn1ncc(Cl)c1C(=O)NCc1ccc(Oc2ccc(C(F)(F)F)cc2)cc1 | 80 | 30 | 100 | 

Compound | mortality at 12.5 ppm [1] [%] | mortality at 3.1 ppm [2] [%] | mortality at 50 ppm [3] [%] | further results
CC(C)c1nn(C)c(C(=O)NCc2ccc(Oc3ccc(C(F)(F)F)cc3)cc2)c1Cl | 80 | 30 | 80 | 
CC1CCc2c1nn(C)c2C(=O)NCc1ccc(C(C)(C)C)cc1 (centres undefined) | 30 |  |  | mortality at 12.5 ppm [4]: 100%; mortality at 12.5 ppm [5]: 0%; mortality at 3.1 ppm [8]: 100%; mortality at 12.5 ppm [9]: 0%; mortality at 12.5 ppm [13]: 0%
CCc1nn(C)c(C(=O)NCc2ccc(Oc3ccc(S(C)(=O)=O)cc3)cc2)c1Cl | 100 | 30 | 100 | 
CC1CCc2c1nn(C)c2C(=O)NC(C)c1ccc(Oc2ccc(C(F)(F)F)cc2)cc1 (single isomer, unassigned; diastereomer 2) | 100 | 80 | 100 | mortality at 0.8 ppm [14]: 0%
Cn1nc2c(c1C(=O)NCc1ccc(Oc3ccc(C(F)(F)F)cc3)cc1)CCCC2 | 80 | 80 | 100 | mortality at 0.8 ppm [14]: 0%
CCc1nn(C)c(C(=O)NCc2ccc(Oc3ccc(C(C)C)cc3)cc2)c1Cl | 30 |  | 80 | 
CCc1nn(C)c(C(=O)NCc2ccc(Oc3ccc(C(F)(F)F)cc3)cc2)c1Br | 100 | 30 | 100 | mortality at 0.8 ppm [14]: 30%
CCc1nn(C)c(C(=O)NCc2ccc(Oc3ccccc3)cc2)c1Cl | 30 |  | 100 | 
CC1CCc2c1nn(C)c2C(=O)NCc1ccc(Oc2ccc(C(F)(F)F)cc2)cc1 (racemic) |  |  |  | mortality at 12.5 ppm [4]: 100%; mortality at 12.5 ppm [5]: 100%; mortality at 3.1 ppm [6]: 100%; mortality at 3.1 ppm [7]: 100%; mortality at 3.1 ppm [8]: 100%; mortality at 12.5 ppm [9]: 100%; mortality at 0.8 ppm [10]: 100%; mortality at 3.1 ppm [11]: 80%; mortality at 0.8 ppm [12]: 0%; mortality at 12.5 ppm [13]: 100%; mortality [14]: 30%; mortality at 0.8 ppm [15]: 100%
CCc1nn(C)c(C(=O)NCc2ccc(C(C)(C)C)cc2)c1Cl [TEBUFENPYRAD] | 0 |  |  | mortality at 12.5 ppm [4]: 100%; mortality at 12.5 ppm [5]: 0%; mortality at 3.1 ppm [8]: 100%; mortality at 12.5 ppm [9]: 30%; mortality at 12.5 ppm [13]: 0%
CCc1nn(C)c(C(=O)NCc2ccc(Oc3ccc([N+](=O)[O-])cc3)cc2)c1Cl | 100 | 100 | 100 | 
CC1CCc2c1nn(C)c2C(=O)NCc1ccc(Oc2ccc([N+](=O)[O-])cc2)cc1 (centres undefined) | 100 | 100 |  | mortality at 12.5 ppm [4]: 80%; mortality at 12.5 ppm [5]: 80%; mortality at 3.1 ppm [6]: 100%; mortality at 3.1 ppm [7]: 80%; mortality at 3.1 ppm [8]: 30%; mortality at 12.5 ppm [9]: 100%; mortality at 0.8 ppm [10]: 30%; mortality at 3.1 ppm [11]: 100%; mortality at 0.8 ppm [12]: 0%; mortality at 12.5 ppm [13]: 100%; mortality at 0.8 ppm [14]: 30%; mortality at 0.8 ppm [15]: 0%
CCc1nn(C)c(C(=O)NCc2ccc(Oc3ccc(C(F)F)cc3)cc2)c1Cl | 100 | 100 | 100 | 
CCc1nn(C)c(C(=O)NCc2ccc(Oc3ccc(C)cc3)cc2)c1Cl [TOLFENPYRAD] | 100 | 30 | 100 | 
CC1CCc2c1nn(C)c2C(=O)NCc1ccc(Oc2ccc(C(F)(F)F)cc2)cc1 (single isomer, unassigned; (-)) | 100 |  | 100 | mortality [2]: 100%; mortality [14]: 80%
Cc1nn(C)c(C(=O)NCc2ccc(Oc3ccc(C(F)(F)F)cc3)cc2)c1Cl | 80 | 80 | 100 | mortality at 0.8 ppm [14]: 30%
CCc1nn(C)c(C(=O)NCc2ccc(Oc3ccc(C(F)(F)F)cc3)cc2)c1Cl | 100 | 30 | 100 | 
CCc1nn(C)c(C(=O)NCc2ccc(Oc3ccc(C#N)cc3)cc2)c1Cl | 100 | 0 | 100 | 
CCc1nn(C)c(C(=O)NCc2ccc(Oc3ccc(OCC(F)(F)F)cc3)cc2)c1Cl | 30 |  | 100 | 
